These results are taken from patent US7629126B2, “PIM-3 kinase as a target for type 2 diabetes mellitus” (Sanofi-Aventis Deutschland GmbH, priority 2002, dated 2009).

The subject of test [1] is ZDF rats. As to the kind of experiment: HbA1c as marker of long-term blood glucose in ZDF rats treated with Rosiglitazone. Type of test: in vivo, rat. Particulars: ZDF rats treated 14 weeks, 3 mg/kg/day, single animals R1-R5. How it is done:
(§1) Zucker Diabetic Fatty (ZDF/Gmi.TM.−fa/fa) male rats as well as their lean fa+/fa− counterparts, aged 5 weeks (control 1-5, ZDF 1-10)were obtained from Genetic Models Inc. (Indianapolis, Ind.). The rats were given free access to food and water. The ZDF animals were split into 2 groups: group 1(animals ZDF 1-5) was not treated with any agent, whereas the second group was treated for 14 weeks with the antidiabetic drug Rosiglitazone (3 mg/kg/day, animals 6-10, Rosi 1-5,). For the collection of epididymal fat pads and also blood samples, in each case 5 animals were sacrificed by cervical dislocation. To monitor the success of the antidiabetic treatment, HbA1c as marker of long-term blood glucose levels were measured by standard methods after finishing of the experiment.

Test [2] concerns PIM-3. The test can be described thus: Gene expression of PIM-3 in 3T3-L1 adipocytes treated with antidiabetic drugs (PPARγ agonists), Affymetrix array. Type of test: cell-based, murine. How it is done:
3T3-L1 preadipocytes were grown at 37° C. in 10% CO2 in Dulbecco's modified Eagle's medium (DMEM) containing 1 g/l glucose and 10% fetal calf serum (FCS). For differentiation into mature adipocytes, confluent preadipocytes were cultured for four days in DMEM supplemented with 4.5 g/l glucose, 10% FCS, 50 μg/ml ascorbic acid, 1 μM biotin, 17 μM pantothenic acid (=basal medium), 500 μM 3-isobutylmethylxanthine, 0.25 μM dexamethasone and 1 μg/ml human recombinant insulin. During the four day treatment the medium was changed once.
Differentiated 3T3-L1 cells were maintained in basal medium for one additional day and subsequently kept in serum-free basal medium for four hours. Then, PPARγ agonists diluted in basal medium were added to the adipocytes as described below centrations and conditions see table 5):
RNA was isolated using the TRIzol reagent (Life Technologies, Karlsruhe, Germany) and treated with DNase I by applying the DNA-free kit (Ambion, Austin, Tex., US).
Further purification of the RNA was achieved using the RNeasy mini kit (Qiagen, Hilden, Germany) and quality/quantity control was done with the 2100Bioanalyzer (Agilent, Böblingen, Germany). 10 μg of total RNA was converted into biotinylated cRNA according to the GeneChip expression analysis technical manual (Affymetrix, Santa Clara, Calif., US). Briefly, first and second strand synthesis was performed by applying the SuperScript double stranded cDNA synthesis kit (Life Technologies, Kardsruhe, Germany) and biotin labeled cRNA was produced with the BioArray RNA transcript labeling kit (Enzo Diagnostics, Framingdale, N.Y., US). 10 μg of cRNA was fragmented by heat, added to the GeneChip eukaryotic hybridization control solution (Affymetrix) and hybridized to a GeneChip MG-U74Av2 array (Affymetrix) by rotating for 16 hours at 45° C. Washing, staining and scanning of the array was carried outwith standard procedures using the hardware provided by Affymetrix. Raw data was analyzed by applying the microarray suite version 4.0.1 software (Affymetrix, see above).
The entire experiment was repeated twice to provide three biological replicates.
Data analysis including the estimation of fold changes was performed as described above. Fold change values for PIM-3 were obtained by comparing the compound treated samples against the untreated controls for each time point.

For test [3], the system named is Pim-3. The test can be described thus: Gene expression of Pim-3 in epididymal adipose tissue of ZDF rats treated with anti-diabetic drugs (PPARγ agonists). Type of test: in vivo, rat. Particulars: ZDF rats 20 weeks old, 3 mg/kg/day for 14 weeks, single animals Rosi 1-5 vs ZDF 1-5. The method, then:
as §1
Collection of epididymal adipose tissue, RNA isolation and Affymetrix experiments were performed as described in experiment 1. Data analysis included the comparison of expression data of samples derived from the lean control animals versus the untreated ZDF rats as well as the comparison of the expression data derived from Rosiglitazone treated ZDF animals versus non-treated ZDF animals. […] Fold changes of gene expression for Pim-3 were analyzed using the Affymetlrix qualifier AF086624_S_AT.

Where [4] appears, read: 1 μM, 6 hours, Table 6a (replicate 1).
Where [5] appears, read: 1 μM, 6 hours, Table b (replicate 2).
[6] abbreviates: 1 μM, 6 hours, Table c (replicate 3).
Setting [7] is: 1 μM, 24 hours, Table 6a (replicate 1).
[8] abbreviates: 1 μM, 24 hours, Table b (replicate 2).
Where [9] appears, read: 1 μM, 24 hours, Table c (replicate 3).
Setting [10] is: 1 μM, 48 hours, Table 6a (replicate 1).
Setting [11] is: 1 μM, 48 hours, Table b (replicate 2).
[12] abbreviates: 1 μM, 48 hours, Table c (replicate 3).
Setting [13] is: 5 μM, 6 hours, Table 6a (replicate 1).
Setting [14] is: 5 μM, 6 hours, Table b (replicate 2).
The mark [15] stands for this setting: 5 μM, 6 hours, Table c (replicate 3).
The mark [16] stands for this setting: 5 μM, 24 hours, Table 6a (replicate 1).
Setting [17] is: 5 μM, 24 hours, Table b (replicate 2).
Setting [18] is: 5 μM, 24 hours, Table c (replicate 3).
Setting [19] is: 5 μM, 48 hours, Table 6a (replicate 1).
[20] abbreviates: 5 μM, 48 hours, Table b (replicate 2).
The mark [21] stands for this setting: 5 μM, 48 hours, Table c (replicate 3).

“And” between values parts separate entries of the source, which are not always exact repeats. Equal entries are not always repeated.

For `CN(CCOc1ccc(CC2SC(=O)NC2=O)cc1)c1ccccn1` (centres unmarked) [Rosi, rosiglitazone], the “HbA1c (%)” value in test [1] is 4.30% and 4.27% and 4.14% (2×) and 4.13%. For the same molecule, the “Fold change (PIM-3 gene expression vs DMSO control)” value in test [2] (setting [4]) is recorded as 2.1; in test [2] (setting [5]), 1.5; in test [2] (setting [6]), 2.0; in test [2] (setting [7]) it was 2.9; in test [2] (setting [8]), 2.2; in test [2] (setting [9]) it was 1.9. The “Fold change (PIM-3 gene expression vs DMSO control)” value in test [2] (setting [10]) came to 2.6; in test [2] (setting [11]), 2.0; in test [2] (setting [12]), 2.1; in test [2] (setting [13]), 2.2; in test [2] (setting [14]), 1.3; in test [2] (setting [15]), 2.2. Besides, the “Fold change (PIM-3 gene expression vs DMSO control)” value in test [2] (setting [16]) came out at 2.9; in test [2] (setting [17]), 1.9; in test [2] (setting [18]) it was 1.3; in test [2] (setting [19]), 2.6; in test [2] (setting [20]), 1.9; in test [2] (setting [21]), 2.0. Moreover, the “Fold change (Pim-3 gene expression, treated ZDF rats vs untreated ZDF rats)” value in test [3] is 1.6 (2×) and 1.3 and 1.5 and 1.4.

In the case of `Cc1c(C)c2c(c(C)c1O)CCC(C)(COc1ccc(CC3SC(=O)NC3=O)cc1)O2` (centres unmarked) [Tro, troglitazone], the “Fold change (PIM-3 gene expression vs DMSO control)” value in test [2] (setting [4]) is 1.7; in test [2] (setting [5]), 1.7; in test [2] (setting [6]), 1.8; in test [2] (setting [7]), 1.8; in test [2] (setting [8]), 1.6; in test [2] (setting [9]) it was 1.6. Besides, the “Fold change (PIM-3 gene expression vs DMSO control)” value in test [2] (setting [10]) came to 1.8; in test [2] (setting [11]), 1.6; in test [2] (setting [12]) it was 1.6; in test [2] (setting [13]) it was 2.1; in test [2] (setting [14]), 1.7; in test [2] (setting [15]) it was 2.3. The “Fold change (PIM-3 gene expression vs DMSO control)” value in test [2] (setting [16]) was 2.7; in test [2] (setting [17]) it was 1.9; in test [2] (setting [18]), 2.0; in test [2] (setting [19]), 2.4; in test [2] (setting [20]), 1.9; in test [2] (setting [21]), 2.3.
